Residues, ends and D or L forms follow the SMILES beside them.
Target: IL-17RA/IL17RC dimerization induced by IL-17A (Homo sapiens, UniProt Q16552)
Assay: IL-17RA/IL17RC dimerization assay in response to IL-17A (PathHunter Cytokine Receptor Assay)
Format: cell-based
Conditions: not given
Procedure: The peptides of Table 7 were tested for their ability to inhibit the binding of IL-17A to its receptor and the subsequent interaction of IL-17RA and IL17RC.
Interleukin receptor RA and RC dimerization assay (DiscoverX) was used to measure the interaction of the receptor chains IL-17RA and IL17RC upon activation by IL-17A in the absence or presence of the peptides of Table 7.
In the PathHunter® Cytokine Receptor Assay, one cytokine receptor chain is tagged with a small peptide epitope ProLink (PK) and the other chain is tagged with Enzyme Acceptor (EA). Ligand binding induces dimerization of the two receptors, facilitating complementation of PK and EA fragments. This interaction generates an active unit of b-galactosidase, which is detected using a chemiluminescent substrate. PathHunter cell lines were expanded from freezer stocks according to standard procedures. Cells were seeded in a total volume of 20 μL into white walled, 384-well microplates and incubated for the appropriate time prior to testing. For agonist activity inhibition, cells were incubated with sample to induce response. Intermediate dilution of sample stocks was performed to generate 5× sample in assay buffer. 5 μL of 5× sample was added to cells and incubated at 37° C. or room temperature for 60 minutes. Vehicle concentration was 1%. 5 μL of 6×EC80 agonist (IL-17A) in assay buffer was added to the cells and incubated at 37° C. for 6 to 16 hours depending on the assay. 1. […] For some assays, activity was detected using a high sensitivity detection reagent (PathHunter Flash Kit) to improve assay performance. In these assays, an equal volume of detection reagent (25 or 30 uL) was added to the wells, followed by a one hour incubation at room temperature. Microplates were read following signal generation with a PerkinElmer Envision™ instrument for chemiluminescent signal detection. Compound activity was analyzed using CBIS data analysis suite (ChemInnovation, CA). % Inhibition=100%×(1−(mean RLU of test sample−mean RLU of vehicle control)/(mean RLU of EC80 control−mean RLU of vehicle control)).

IL-17RA/IL17RC dimerization induced by IL-17A, sequence (Q16552 24-155): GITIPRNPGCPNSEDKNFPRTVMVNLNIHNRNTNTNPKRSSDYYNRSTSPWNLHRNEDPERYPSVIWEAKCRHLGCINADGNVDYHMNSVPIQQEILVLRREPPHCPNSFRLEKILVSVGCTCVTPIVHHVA

SMILES | IC50 [µM]
CC[C@H](C)[C@H](NC(C)=O)C(=O)N[C@@H](Cc1c[nH]cn1)C(=O)N[C@H](C(=O)N[C@H](C(=O)N[C@H](C(=O)N1CCC[C@H]1C(=O)N[C@@H](C)C(=O)N[C@@H](CC(=O)O)C(=O)N[C@H](C(=O)N[C@@H](Cc1c[nH]c2ccccc12)C(=O)N[C@@H](CC(=O)O)C(=O)N[C@@H](Cc1c[nH]c2ccccc12)C(=O)N[C@H](C(=O)N[C@@H](CC(N)=O)C(=O)N[C@@H](CCCCN)C(N)=O)[C@@H](C)CC)[C@@H](C)CC)[C@@H](C)CC)[C@@H](C)O)C(C)C [SEQ ID NO: 205] (Ac-IHVTIPADIWDWINK-NH2) | < 10

Same assay, conditions: IL-17A at EC80; read-out: IC50 in IL-17RA/IL7RC dimerization assay

SMILES | IC50 [µM]
CC[C@H](C)[C@H](NC(=O)[C@@H](NC(=O)[C@@H](NC(=O)[C@H](Cc1c[nH]cn1)NC(=O)[C@@H](NC(C)=O)C(C)C)C(C)C)[C@@H](C)O)C(=O)N1CCC[C@H]1C(=O)N[C@@H](C)C(=O)N[C@@H](CC(N)=O)C(=O)N[C@@H](CC(C)C)C(=O)N[C@@H](Cc1c[nH]c2ccccc12)C(=O)N[C@@H](CCC(=O)O)C(=O)N[C@@H](Cc1c[nH]c2ccccc12)C(=O)N[C@H](C(=O)N[C@@H](CCCNC(=N)N)C(=O)N[C@@H](CCCNC(=N)N)C(N)=O)C(C)C [SEQ ID NO: 116] (Ac-VHVTIPANLWEWVRR-NH2) | < 0.5
CC(=O)N[C@H](C(=O)N[C@@H](Cc1c[nH]cn1)C(=O)N[C@@H](Cc1ccccc1)C(=O)N[C@@H](CCC(N)=O)C(=O)N[C@@H](Cc1ccccc1)C(=O)N1CCC[C@H]1C(=O)N[C@@H](C)C(=O)N[C@@H](CC(=O)O)C(=O)N[C@@H](CC(C)C)C(=O)N[C@@H](Cc1c[nH]c2ccccc12)C(=O)N[C@@H](CCC(=O)O)C(=O)N[C@@H](Cc1c[nH]c2ccccc12)C(=O)N[C@@H](Cc1ccccc1)C(=O)N[C@@H](CCCNC(=N)N)C(=O)N[C@@H](CCCNC(=N)N)C(N)=O)C(C)C [SEQ ID NO: 135] (Ac-VHFQFPADLWEWFRR-NH2) | < 0.5
CC[C@H](C)[C@H](NC(C)=O)C(=O)N[C@@H](Cc1c[nH]cn1)C(=O)N[C@H](C(=O)N[C@H](C(=O)N[C@H](C(=O)N[C@@H](CC(C)C)C(=O)N[C@@H](C)C(=O)N[C@@H](CC(=O)O)C(=O)N[C@@H](CC(C)C)C(=O)N[C@@H](Cc1c[nH]c2ccccc12)C(=O)N[C@@H](CC(=O)O)C(=O)N[C@@H](Cc1c[nH]c2ccccc12)C(=O)N[C@H](C(=O)N[C@@H](CC(N)=O)C(=O)N[C@@H](CCCCN)C(N)=O)[C@@H](C)CC)[C@@H](C)CC)[C@@H](C)O)C(C)C [SEQ ID NO: 188] (Ac-IHVTILADLWDWINK-NH2) | < 10
CC(=O)N[C@H](C(=O)N[C@@H](Cc1c[nH]cn1)C(=O)N[C@@H](Cc1ccccc1)C(=O)N[C@@H](CCC(N)=O)C(=O)N[C@@H](Cc1ccccc1)C(=O)N1CCC[C@H]1C(=O)N[C@@H](CCC(N)=O)C(=O)N[C@@H](CC(=O)O)C(=O)N[C@@H](Cc1c[nH]c2ccccc12)C(=O)N[C@@H](Cc1c[nH]c2ccccc12)C(=O)N[C@@H](CCC(=O)O)C(=O)N[C@@H](Cc1c[nH]c2ccccc12)C(=O)N[C@@H](Cc1ccccc1)C(=O)N[C@@H](CCCNC(=N)N)C(=O)N[C@@H](CCCNC(=N)N)C(N)=O)C(C)C [SEQ ID NO: 141] (Ac-VHFQFPQDWWEWFRR-NH2) | < 0.5
CC[C@H](C)[C@H](NC(C)=O)C(=O)N[C@@H](Cc1c[nH]cn1)C(=O)N[C@H](C(=O)N[C@H](C(=O)NCC(=O)N1CCC[C@H]1C(=O)N[C@@H](C)C(=O)N[C@@H](CC(=O)O)C(=O)N[C@@H](CC(C)C)C(=O)N[C@@H](Cc1c[nH]c2ccccc12)C(=O)N[C@@H](CC(=O)O)C(=O)N[C@@H](Cc1c[nH]c2ccccc12)C(=O)N[C@H](C(=O)N[C@@H](CC(N)=O)C(=O)N[C@@H](CCCCN)C(N)=O)[C@@H](C)CC)[C@@H](C)O)C(C)C [SEQ ID NO: 180] (Ac-IHVTGPADLWDWINK-NH2) | < 10
CC[C@H](C)[C@H](NC(C)=O)C(=O)N[C@@H](Cc1c[nH]cn1)C(=O)N[C@H](C(=O)N[C@H](C(=O)N[C@H](C(=O)N1CCC[C@H]1C(=O)N[C@@H](C)C(=O)N[C@@H](CC(=O)O)C(=O)N[C@@H](CC(C)C)C(=O)N[C@@H](Cc1c[nH]c2ccccc12)C(=O)N[C@@H](CC(=O)O)C(=O)N[C@@H](Cc1c[nH]c2ccccc12)C(=O)N[C@H](C(=O)N[C@@H](CC(N)=O)C(=O)N[C@@H](CCCCN)C(N)=O)[C@@H](C)CC)[C@@H](C)CC)[C@@H](C)O)[C@@H](C)CC [SEQ ID NO: 171] (Ac-IHITIPADLWDWINK-NH2) | < 10
CC[C@H](C)[C@H](NC(=O)[C@H](Cc1c[nH]c2ccccc12)NC(=O)[C@H](CCC(=O)O)NC(=O)[C@H](Cc1ccc(O)cc1)NC(=O)[C@H](CC(C)C)NC(=O)[C@H](CC(=O)O)NC(=O)[C@H](C)NC(=O)[C@@H]1CCCN1C(=O)[C@@H](NC(=O)[C@@H](NC(=O)[C@@H](NC(=O)[C@H](CCSC)NC(=O)[C@@H](NC(=O)[C@@H](C)O[C@H]1[C@H](O[C@@H]2O[C@H](CO)[C@@H](O)[C@H](O)[C@H]2NC(C)=O)[C@@H](CO)OC(O)[C@@H]1NC(C)=O)[C@@H](C)CC)C(C)C)[C@@H](C)O)[C@@H](C)CC)C(=O)N[C@@H](CCC(=O)O)C(=O)N[C@@H](CCC(=O)O)C(N)=O (some centres unmarked) [BIO-3] | < 1

The remaining lines, values ahead:

IC50 [µM] | SMILES
< 10 | CC[C@H](C)[C@H](NC(C)=O)C(=O)N[C@@H](Cc1c[nH]cn1)C(=O)N[C@H](C(=O)N[C@H](C(=O)N[C@H](C(=O)N1CCC[C@H]1C(=O)N[C@@H](C)C(=O)N[C@@H](CC(=O)O)C(=O)N[C@@H](CC(C)C)C(=O)N[C@@H](Cc1c[nH]c2ccccc12)C(=O)N[C@@H](CC(=O)O)C(=O)N[C@@H](Cc1c[nH]c2ccccc12)C(=O)N1CCC[C@H]1C(=O)N[C@@H](CC(N)=O)C(=O)N[C@@H](CCCCN)C(N)=O)[C@@H](C)CC)[C@@H](C)O)C(C)C [SEQ ID NO: 217] (Ac-IHVTIPADLWDWPNK-NH2)
< 10 | CC(=O)N[C@H](C(=O)N[C@@H](CCCNC(=N)N)C(=O)N[C@H](C(=O)N[C@H](C(=O)N[C@H](C(=O)N1CCC[C@H]1C(=O)N[C@@H](CCC(N)=O)C(=O)N[C@@H](CCC(=O)O)C(=O)N[C@@H](CC(C)C)C(=O)N[C@@H](Cc1c[nH]c2ccccc12)C(=O)N[C@@H](CCC(=O)O)C(=O)N[C@@H](Cc1c[nH]c2ccccc12)C(=O)N[C@H](C(=O)N[C@@H](CCCNC(=N)N)C(=O)N[C@@H](CCCNC(=N)N)C(N)=O)C(C)C)C(C)C)[C@@H](C)O)C(C)C)C(C)C [SEQ ID NO: 235] (Ac-VRVTVPQELWEWVRR-NH2)
< 10 | CC[C@H](C)[C@H](NC(C)=O)C(=O)N[C@@H](Cc1c[nH]cn1)C(=O)N[C@H](C(=O)N[C@H](C(=O)N[C@H](C(=O)N1CCC[C@H]1C(=O)N[C@@H](C)C(=O)N[C@@H](CC(=O)O)C(=O)N1CCC[C@H]1C(=O)N[C@@H](Cc1c[nH]c2ccccc12)C(=O)N[C@@H](CC(=O)O)C(=O)N[C@@H](Cc1c[nH]c2ccccc12)C(=O)N[C@H](C(=O)N[C@@H](CC(N)=O)C(=O)N[C@@H](CCCCN)C(N)=O)[C@@H](C)CC)[C@@H](C)CC)[C@@H](C)O)C(C)C [SEQ ID NO: 203] (Ac-IHVTIPADPWDWINK-NH2)
< 10 | CC[C@H](C)[C@H](NC(C)=O)C(=O)N[C@@H](Cc1c[nH]cn1)C(=O)N[C@H](C(=O)N[C@H](C(=O)N[C@H](C(=O)N1CCC[C@H]1C(=O)N[C@@H](C)C(=O)N[C@@H](CC(=O)O)C(=O)N[C@H](C(=O)N[C@@H](Cc1c[nH]c2ccccc12)C(=O)N[C@@H](CC(=O)O)C(=O)N[C@@H](Cc1c[nH]c2ccccc12)C(=O)N[C@H](C(=O)N[C@@H](CC(N)=O)C(=O)N[C@@H](CCCCN)C(N)=O)[C@@H](C)CC)C(C)C)[C@@H](C)CC)[C@@H](C)O)C(C)C [SEQ ID NO: 204] (Ac-IHVTIPADVWDWINK-NH2)
< 10 | CC[C@H](C)[C@H](NC(C)=O)C(=O)N[C@@H](Cc1c[nH]cn1)C(=O)N[C@H](C(=O)N[C@H](C(=O)N[C@H](C(=O)N1CCC[C@H]1C(=O)N[C@@H](C)C(=O)N[C@@H](CC(=O)O)C(=O)N[C@@H](CC(C)C)C(=O)N[C@@H](Cc1c[nH]c2ccccc12)C(=O)N[C@@H](CC(=O)O)C(=O)N[C@@H](Cc1c[nH]c2ccccc12)C(=O)N[C@H](C(=O)N[C@@H](CCC(N)=O)C(=O)N[C@@H](CCCCN)C(N)=O)[C@@H](C)CC)[C@@H](C)CC)[C@@H](C)O)C(C)C [SEQ ID NO: 220] (Ac-IHVTIPADLWDWIQK-NH2)
< 10 | CC(=O)N[C@H](C(=O)N[C@@H](Cc1c[nH]cn1)C(=O)N[C@H](C(=O)N[C@H](C(=O)N[C@H](C(=O)N1CCC[C@H]1C(=O)N[C@@H](CCC(N)=O)C(=O)N[C@@H](CCC(=O)O)C(=O)N[C@@H](CC(C)C)C(=O)N[C@@H](Cc1ccccc1)C(=O)N[C@@H](CCC(=O)O)C(=O)N[C@@H](Cc1c[nH]c2ccccc12)C(=O)N[C@H](C(=O)N[C@@H](CCCNC(=N)N)C(=O)N[C@@H](CCCNC(=N)N)C(N)=O)C(C)C)C(C)C)[C@@H](C)O)C(C)C)C(C)C [SEQ ID NO: 225] (Ac-VHVTVPQELFEWVRR-NH2)

— US11236129B2, “IL-17A binding peptides and medical uses thereof” (Dompe' Farmaceutici S.P.A., priority 2018, dated 2022)
